Measured values: patent US4971965A, “Antibiotics TAN-1057” (Takeda Chemical Industries, Ltd., priority 1988, dated 1990)
In brackets after ≈: the same amount, converted by molar mass. Where two headings read alike, the source gives them in different places.

Legend:
Assay in all cases: Antibacterial activity against clinically isolated S. aureus (agar dilution MIC, Table 2)
Type in all cases: cell-based
[1] = tested on: Staphylococcus aureus C10
Description: (§1) DMPPC: Methicillin, KM: Kanamycin, GM: Gentamycin, EM: Erythromycin (Note
(§2) Determined by the agar dilution method. Medium: Mueller Hinton medium
(§3) (Difco, USA) Inoculum Size: 10^6 CFU/ml, 37° C.

Staphylococcus aureus C3 = tested on: Staphylococcus aureus C3
Description: as §1, §2, §3

Staphylococcus aureus C4 = tested on: Staphylococcus aureus C4
Description: as §1, §2, §3

Staphylococcus aureus C7 = tested on: Staphylococcus aureus C7
Description: as §1, §2, §3

[2] = tested on: Staphylococcus aureus FDA 209P
Description: as §1, §2, §3

[3] = tested on: Staphylococcus aureus N121
Description: as §1, §2, §3

[4] = tested on: Staphylococcus aureus N129
Description: as §1, §2, §3

[5] = tested on: Staphylococcus aureus N176-3
Description: as §1, §2, §3

[6] = tested on: Staphylococcus aureus N176-6
Description: as §1, §2, §3

[7] = tested on: Staphylococcus aureus N176
Description: as §1, §2, §3

[8] = tested on: Staphylococcus aureus N235
Description: as §1, §2, §3

[9] = tested on: Staphylococcus aureus N237
Description: as §1, §2, §3

[10] = tested on: Staphylococcus aureus N247-16
Description: as §1, §2, §3

[11] = tested on: Staphylococcus aureus N247-21
Description: as §1, §2, §3

[12] = tested on: Staphylococcus aureus N247
Description: as §1, §2, §3

[13] = tested on: Staphylococcus aureus N262
Description: as §1, §2, §3

[14] = tested on: Staphylococcus aureus N267
Description: as §1, §2, §3

[15] = tested on: Staphylococcus aureus N28
Description: as §1, §2, §3

[16] = tested on: Staphylococcus aureus N326
Description: as §1, §2, §3

[17] = tested on: Staphylococcus aureus N51
Description: as §1, §2, §3

[18] = tested on: Staphylococcus aureus N62
Description: as §1, §2, §3

[19] = tested on: Staphylococcus aureus N64
Description: as §1, §2, §3

[20] = tested on: Staphylococcus aureus N83
Description: as §1, §2, §3

Staphylococcus aureus N8 = tested on: Staphylococcus aureus N8
Description: as §1, §2, §3

[21] = tested on: Staphylococcus aureus N91
Description: as §1, §2, §3

[22] = tested on: Staphylococcus aureus TS-65
Description: as §1, §2, §3

[23] = tested on: Staphylococcus aureus TST-75
Description: as §1, §2, §3

Molecule: COc1cccc(OC)c1C(=O)N[C@@H]1C(=O)N2[C@@H]1SC(C)(C)[C@@H]2C(=O)O [DMPPC, Methicillin]
- MIC ([1]; Staphylococcus aureus, strain C10, agar dilution, Mueller Hinton medium, 10^6 CFU/ml, read-out: MIC): 800 µg/mL (≈ 2100 µM)
- MIC (Staphylococcus aureus C3; Staphylococcus aureus, strain C3, agar dilution, Mueller Hinton medium, 10^6 CFU/ml, read-out: MIC): 50 µg/mL (≈ 131 µM)
- MIC (Staphylococcus aureus C4; Staphylococcus aureus, strain C4, agar dilution, Mueller Hinton medium, 10^6 CFU/ml, read-out: MIC): 50 µg/mL (≈ 131 µM)
- MIC (Staphylococcus aureus C7; Staphylococcus aureus, strain C7, agar dilution, Mueller Hinton medium, 10^6 CFU/ml, read-out: MIC): 50 µg/mL (≈ 131 µM)
- MIC ([2]; Staphylococcus aureus, FDA209P, strain FDA 209P, agar dilution, Mueller Hinton medium, 10^6 CFU/ml, read-out: MIC): 1.56 µg/mL (≈ 4.1 µM)
- MIC ([3]; Staphylococcus aureus, strain N121, agar dilution, Mueller Hinton medium, 10^6 CFU/ml, read-out: MIC): 50 µg/mL (≈ 131 µM)
- MIC ([4]; Staphylococcus aureus, strain N129, agar dilution, Mueller Hinton medium, 10^6 CFU/ml, read-out: MIC): 400 µg/mL (≈ 1050 µM)
- MIC ([5]; Staphylococcus aureus, N1763, strain N176-3, agar dilution, Mueller Hinton medium, 10^6 CFU/ml, read-out: MIC): 50 µg/mL (≈ 131 µM)
- MIC ([6]; Staphylococcus aureus, N1766, strain N176-6, agar dilution, Mueller Hinton medium, 10^6 CFU/ml, read-out: MIC): 200 µg/mL (≈ 526 µM)
- MIC ([7]; Staphylococcus aureus, strain N176, agar dilution, Mueller Hinton medium, 10^6 CFU/ml, read-out: MIC): 12.5 µg/mL (≈ 32.9 µM)
- MIC ([8]; Staphylococcus aureus, strain N235, agar dilution, Mueller Hinton medium, 10^6 CFU/ml, read-out: MIC): 1.56 µg/mL (≈ 4.1 µM)
- MIC ([9]; Staphylococcus aureus, strain N237, agar dilution, Mueller Hinton medium, 10^6 CFU/ml, read-out: MIC): 20 µg/mL (≈ 52.6 µM)
- MIC ([10]; Staphylococcus aureus, N24716, strain N247-16, agar dilution, Mueller Hinton medium, 10^6 CFU/ml, read-out: MIC): > 1600 µg/mL
- MIC ([11]; Staphylococcus aureus, N24721, strain N247-21, agar dilution, Mueller Hinton medium, 10^6 CFU/ml, read-out: MIC): 200 µg/mL (≈ 526 µM)
- MIC ([12]; Staphylococcus aureus, strain N247, agar dilution, Mueller Hinton medium, 10^6 CFU/ml, read-out: MIC): 50 µg/mL (≈ 131 µM)
- MIC ([13]; Staphylococcus aureus, strain N262, agar dilution, Mueller Hinton medium, 10^6 CFU/ml, read-out: MIC): 100 µg/mL (≈ 263 µM)
- MIC ([14]; Staphylococcus aureus, strain N267, agar dilution, Mueller Hinton medium, 10^6 CFU/ml, read-out: MIC): 100 µg/mL (≈ 263 µM)
- MIC ([15]; Staphylococcus aureus, strain N28, agar dilution, Mueller Hinton medium, 10^6 CFU/ml, read-out: MIC): 1600 µg/mL (≈ 4210 µM)
- MIC ([16]; Staphylococcus aureus, strain N326, agar dilution, Mueller Hinton medium, 10^6 CFU/ml, read-out: MIC): 1600 µg/mL (≈ 4210 µM)
- MIC ([17]; Staphylococcus aureus, strain N51, agar dilution, Mueller Hinton medium, 10^6 CFU/ml, read-out: MIC): 1.56 µg/mL (≈ 4.1 µM)
- MIC ([18]; Staphylococcus aureus, strain N62, agar dilution, Mueller Hinton medium, 10^6 CFU/ml, read-out: MIC): 3.13 µg/mL (≈ 8.23 µM)
- MIC ([19]; Staphylococcus aureus, strain N64, agar dilution, Mueller Hinton medium, 10^6 CFU/ml, read-out: MIC): 1600 µg/mL (≈ 4210 µM)
- MIC ([20]; Staphylococcus aureus, strain N83, agar dilution, Mueller Hinton medium, 10^6 CFU/ml, read-out: MIC): 3.13 µg/mL (≈ 8.23 µM)
- MIC (Staphylococcus aureus N8; Staphylococcus aureus, strain N8, agar dilution, Mueller Hinton medium, 10^6 CFU/ml, read-out: MIC): 1.56 µg/mL (≈ 4.1 µM)
- MIC ([21]; Staphylococcus aureus, strain N91, agar dilution, Mueller Hinton medium, 10^6 CFU/ml, read-out: MIC): 1.56 µg/mL (≈ 4.1 µM)
- MIC ([22]; Staphylococcus aureus, TS65, strain TS-65, agar dilution, Mueller Hinton medium, 10^6 CFU/ml, read-out: MIC): > 1600 µg/mL
- MIC ([23]; Staphylococcus aureus, TST75, strain TST-75, agar dilution, Mueller Hinton medium, 10^6 CFU/ml, read-out: MIC): 12.5 µg/mL (≈ 32.9 µM)

Molecule: Gentamycin [GM]
- MIC ([1]; strain C10, agar dilution, Mueller Hinton medium, 10^6 CFU/ml): > 100 µg/mL
- MIC (Staphylococcus aureus C3; strain C3, agar dilution, Mueller Hinton medium, 10^6 CFU/ml): 100 µg/mL
- MIC (Staphylococcus aureus C4; strain C4, agar dilution, Mueller Hinton medium, 10^6 CFU/ml): 50 µg/mL
- MIC (Staphylococcus aureus C7; strain C7, agar dilution, Mueller Hinton medium, 10^6 CFU/ml): > 100 µg/mL
- MIC ([2]; strain FDA 209P, agar dilution, Mueller Hinton medium, 10^6 CFU/ml): ≤ 0.20 µg/mL
- MIC ([3]; strain N121, agar dilution, Mueller Hinton medium, 10^6 CFU/ml): > 100 µg/mL
- MIC ([4]; strain N129, agar dilution, Mueller Hinton medium, 10^6 CFU/ml): 50 µg/mL
- MIC ([5]; strain N176-3, agar dilution, Mueller Hinton medium, 10^6 CFU/ml): 0.39 µg/mL
- MIC ([6]; strain N176-6, agar dilution, Mueller Hinton medium, 10^6 CFU/ml): 0.39 µg/mL
- MIC ([7]; strain N176, agar dilution, Mueller Hinton medium, 10^6 CFU/ml): 0.39 µg/mL
- MIC ([8]; strain N235, agar dilution, Mueller Hinton medium, 10^6 CFU/ml): > 100 µg/mL
- MIC ([9]; strain N237, agar dilution, Mueller Hinton medium, 10^6 CFU/ml): > 100 µg/mL
- MIC ([10]; strain N247-16, agar dilution, Mueller Hinton medium, 10^6 CFU/ml): 100 µg/mL
- MIC ([11]; strain N247-21, agar dilution, Mueller Hinton medium, 10^6 CFU/ml): 50 µg/mL
- MIC ([12]; strain N247, agar dilution, Mueller Hinton medium, 10^6 CFU/ml): 50 µg/mL
- MIC ([13]; strain N262, agar dilution, Mueller Hinton medium, 10^6 CFU/ml): 50 µg/mL
- MIC ([14]; strain N267, agar dilution, Mueller Hinton medium, 10^6 CFU/ml): 100 µg/mL
- MIC ([15]; strain N28, agar dilution, Mueller Hinton medium, 10^6 CFU/ml): 0.39 µg/mL
- MIC ([16]; strain N326, agar dilution, Mueller Hinton medium, 10^6 CFU/ml): > 100 µg/mL
- MIC ([17]; strain N51, agar dilution, Mueller Hinton medium, 10^6 CFU/ml): 0.39 µg/mL
- MIC ([18]; strain N62, agar dilution, Mueller Hinton medium, 10^6 CFU/ml): 3.13 µg/mL
- MIC ([19]; strain N64, agar dilution, Mueller Hinton medium, 10^6 CFU/ml): 0.78 µg/mL
- MIC ([20]; strain N83, agar dilution, Mueller Hinton medium, 10^6 CFU/ml): ≤ 0.20 µg/mL
- MIC (Staphylococcus aureus N8; strain N8, agar dilution, Mueller Hinton medium, 10^6 CFU/ml): ≤ 0.20 µg/mL
- MIC ([21]; strain N91, agar dilution, Mueller Hinton medium, 10^6 CFU/ml): 0.39 µg/mL
- MIC ([22]; strain TS-65, agar dilution, Mueller Hinton medium, 10^6 CFU/ml): 100 µg/mL
- MIC ([23]; strain TST-75, agar dilution, Mueller Hinton medium, 10^6 CFU/ml): > 100 µg/mL

Molecule: NC[C@H]1O[C@H](O[C@H]2[C@H](O)[C@@H](O[C@H]3O[C@H](CO)[C@@H](O)[C@H](N)[C@H]3O)[C@H](N)C[C@@H]2N)[C@H](O)[C@@H](O)[C@@H]1O [KM, Kanamycin]
- MIC ([1]; Staphylococcus aureus, C10): > 100 µg/mL
- MIC (Staphylococcus aureus C3; Staphylococcus aureus, C3): > 100 µg/mL
- MIC (Staphylococcus aureus C4; Staphylococcus aureus, C4): > 100 µg/mL
- MIC (Staphylococcus aureus C7; Staphylococcus aureus, C7): > 100 µg/mL
- MIC ([2]; Staphylococcus aureus, FDA209P): 0.39 µg/mL (≈ 0.805 µM)
- MIC ([3]; Staphylococcus aureus, N121): > 100 µg/mL
- MIC ([4]; Staphylococcus aureus, N129): > 100 µg/mL
- MIC ([5]; Staphylococcus aureus, N1763): 1.56 µg/mL (≈ 3.22 µM)
- MIC ([6]; Staphylococcus aureus, N1766): 1.56 µg/mL (≈ 3.22 µM)
- MIC ([7]; Staphylococcus aureus, N176): 3.13 µg/mL (≈ 6.46 µM)
- MIC ([8]; Staphylococcus aureus, N235): 100 µg/mL (≈ 206 µM)
- MIC ([9]; Staphylococcus aureus, N237): > 100 µg/mL
- MIC ([10]; Staphylococcus aureus, N24716): > 100 µg/mL
- MIC ([11]; Staphylococcus aureus, N24721): > 100 µg/mL
- MIC ([12]; Staphylococcus aureus, N247): > 100 µg/mL
- MIC ([13]; Staphylococcus aureus, N262): > 100 µg/mL
- MIC ([14]; Staphylococcus aureus, N267): > 100 µg/mL
- MIC ([15]; Staphylococcus aureus, N28): > 100 µg/mL
- MIC ([16]; Staphylococcus aureus, N326): > 100 µg/mL
- MIC ([17]; Staphylococcus aureus, N51): 3.13 µg/mL (≈ 6.46 µM)
- MIC ([18]; Staphylococcus aureus, N62): 25 µg/mL (≈ 51.6 µM)
- MIC ([19]; Staphylococcus aureus, N64): > 100 µg/mL
- MIC ([20]; Staphylococcus aureus, N83): > 100 µg/mL
- MIC (Staphylococcus aureus N8; Staphylococcus aureus, N8): 1.56 µg/mL (≈ 3.22 µM)
- MIC ([21]; Staphylococcus aureus, N91): > 100 µg/mL
- MIC ([22]; Staphylococcus aureus, TS65): > 100 µg/mL
- MIC ([23]; Staphylococcus aureus, TST75): > 100 µg/mL
